Test results from ChEMBL document CHEMBL1123653 (J Med Chem, 1987).

Columns and labels:
[1] = target: T1, Serotonin 2 (5-HT2) receptor (Rattus norvegicus, UniProt P30994+P08909+P14842)
[2] = target: T2, Serotonin 1 (5-HT1) receptor (Rattus norvegicus, UniProt P28564+P30940+P19327+P28565)
[3] = target: T2, Serotonin 1 (5-HT1) receptor; assay: Binding affinity towards 5-hydroxytryptamine 1 receptor was determined; assay type: protein assay
[4] = target: T3, 5-hydroxytryptamine receptor 1B (Rattus norvegicus, UniProt P28564)
T3 sequence (P28564 whole entry): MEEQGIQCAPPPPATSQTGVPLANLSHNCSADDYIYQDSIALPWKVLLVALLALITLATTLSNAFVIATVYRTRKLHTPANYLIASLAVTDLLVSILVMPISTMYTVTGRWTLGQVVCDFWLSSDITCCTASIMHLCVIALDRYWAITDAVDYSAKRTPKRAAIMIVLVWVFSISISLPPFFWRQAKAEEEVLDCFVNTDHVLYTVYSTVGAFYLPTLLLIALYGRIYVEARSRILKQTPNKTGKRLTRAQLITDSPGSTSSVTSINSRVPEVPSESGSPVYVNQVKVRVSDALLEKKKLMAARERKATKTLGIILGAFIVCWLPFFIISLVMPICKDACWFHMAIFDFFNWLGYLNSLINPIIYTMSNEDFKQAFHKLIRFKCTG

[5] = target: T4, 5-hydroxytryptamine receptor 1A (Rattus norvegicus, UniProt P19327)
T4 sequence (P19327 whole entry): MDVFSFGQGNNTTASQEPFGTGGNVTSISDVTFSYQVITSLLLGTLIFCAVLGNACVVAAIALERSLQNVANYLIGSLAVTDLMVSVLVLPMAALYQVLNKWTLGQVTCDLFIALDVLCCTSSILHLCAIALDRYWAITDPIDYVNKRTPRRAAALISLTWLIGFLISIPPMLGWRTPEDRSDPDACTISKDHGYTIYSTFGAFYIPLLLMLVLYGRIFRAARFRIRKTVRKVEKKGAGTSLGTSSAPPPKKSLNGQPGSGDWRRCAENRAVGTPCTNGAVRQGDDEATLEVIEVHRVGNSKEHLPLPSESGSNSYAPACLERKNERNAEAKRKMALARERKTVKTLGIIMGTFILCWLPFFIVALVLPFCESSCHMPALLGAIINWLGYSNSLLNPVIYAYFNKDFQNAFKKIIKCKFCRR

[6] = target: T1, Serotonin 2 (5-HT2) receptor; assay: Binding affinity to rat cortical membranes at 5-hydroxytryptamine 2 receptor binding site by using [3H]- DOB as a radioligand
[7] = target: T1, Serotonin 2 (5-HT2) receptor; remark: listed apart in the source
[8] = target: T1, Serotonin 2 (5-HT2) receptor; assay: Binding affinity to rat cortical membranes at 5-hydroxytryptamine 2 receptor binding site by using [3H]- DOB as a radioligand.
[9] = target: T1, Serotonin 2 (5-HT2) receptor; remark: listed apart in the source
[10] = target: T3, 5-hydroxytryptamine receptor 1B; remark: listed apart in the source
Description: Binding affinity towards 5-HT1B was determined

[11] = target: T1, Serotonin 2 (5-HT2) receptor; remark: listed apart in the source

CCCc1cc(OC)c(CC(C)N)cc1OC (configuration not stated)
Ki [1]: 0.069 µM
Ki [2]: 3.17 µM

COc1ccc(CC(C)N)cc1OC (configuration not stated)
Ki [1]: 43.3 µM
Ki [2]: 64.6 µM

c1ccc2c(N3CCNCC3)cccc2c1
Ki [3]: 0.005 µM

COc1ccc2[nH]cc(CCN(C)C)c2c1 [MEBUFOTENIN]
Ki [4]: 0.09 µM
Ki [5]: 0.02 µM
Ki [2]: 0.05 µM

CN(C)CCCSc1ccccc1NC(=O)/C=C/c1ccccc1 [CINANSERIN]
Ki [4]: 1 µM
Ki [6]: 0.004 µM
Ki [7]: 0.004 µM
Ki [1]: 0.004 µM
Ki [2]: 3.5 µM

CN1C[C@H](CNC(=O)OCc2ccccc2)C[C@@H]2c3cccc4c3c(cn4C)C[C@H]21 [METERGOLINE]
Ki [4]: 0.025 µM
Ki [5]: 0.006 µM
Ki [2]: 0.02 µM

C[C@@H](N)Cc1ccc2c(c1)OCO2
Ki [2]: 13 µM

CNC(C)Cc1cc(OC)c(C)cc1OC (configuration not stated)
Ki [1]: 0.415 µM
Ki [2]: 3.87 µM

COc1cc(C[C@H](C)N)c(OC)cc1Br
Ki [2]: 5 µM

COc1cc(CC(C)N)c(OC)cc1C (configuration not stated) [DOM]
Ki [2]: 2.89 µM

c1ccc2nc(N3CCNCC3)ccc2c1 [QUIPAZINE]
Ki [4]: 0.32 µM
Ki [6]: 0.017 µM
Ki [7]: 0.645 µM

c1ccc2cc(N3CCNCC3)ccc2c1
Ki [3]: 0.265 µM

NCCc1c[nH]c2cc(O)ccc12
Ki [4]: 5.89 µM
Ki [5]: 1.59 µM
Ki [1]: 11.5 µM

COc1ccc2[nH]cc(C3=CCNCC3)c2c1 [RU-24969]
Ki [4]: 0.004 µM

COc1ccc(CC(C)N)cc1 (configuration not stated) [PARA-METHOXYAMPHETAMINE]
Ki [1]: 33.6 µM
Ki [2]: 79.4 µM

CCc1cc(OC)c(CC(C)N)cc1OC (configuration not stated)
Ki [2]: 4.57 µM

NCCc1c[nH]c2ccccc12 [TRYPTAMINE]
Ki [6]: 0.05 µM
Ki [5]: 0.17 µM
Ki [1]: 2.895 µM

COc1cc(C[C@@H](C)N)c(OC)cc1Br (stereo in doubt; form 1)
Ki [2]: 4.2 µM

CN1C[C@@H](NS(=O)(=O)N(C)C)C[C@@H]2c3cccc4c3c(cn4C)C[C@H]21 [MESULERGINE]
Ki [4]: 13 µM
Ki [5]: 0.3 µM

COc1cc(CC(C)N)c(OC)cc1F (configuration not stated)
Ki [1]: 1.11 µM
Ki [2]: 3.37 µM

COc1cc([N+](=O)[O-])c(OC)cc1CC(C)N (configuration not stated)
Ki [1]: 0.3 µM
Ki [2]: 14.1 µM

CCCN(CCC)C1CCc2cccc(O)c2C1 (configuration not stated) [8-OH-DPAT]
Ki [1]: 5.5 µM
Ki [8]: 0.7 µM

FC(F)(F)c1cccc(N2CCNCC2)c1
Ki [4]: 0.03 µM
Ki [5]: 1.95 µM
Ki [2]: 0.02 µM

CN[C@H](C)Cc1cc(OC)c(C)cc1OC
Ki [1]: 0.26 µM
Ki [2]: 4.3 µM

COc1cc(C[C@H](C)N)c(OC)cc1I
Ki [1]: 0.035 µM
Ki [2]: 0.92 µM

NCCc1c[nH]c2ccc(C(N)=O)cc12
Ki [4]: 0.005 µM
Ki [5]: 0.0002 µM

O=C(c1ccc(F)cc1)C1CCN(CCn2c(=O)[nH]c3ccccc3c2=O)CC1 [KETANSERIN]
Ki [4]: 1.9 µM
Ki [5]: 1.9 µM

COc1cc(OC)c(OC)cc1CC(C)N (configuration not stated)
Ki [2]: 46.4 µM

O=C(CCCN1CCC2(CC1)C(=O)NCN2c1ccccc1)c1ccc(F)cc1 [SPIPERONE]
Ki [4]: 4.8 µM
Ki [5]: 0.04 µM
Ki [2]: 0.16 µM

COc1cc(C[C@@H](C)N)c(OC)cc1C
Ki [2]: 3.55 µM

O=C1c2ccccc2S(=O)(=O)N1CCCCN1CCN(c2ncccn2)CC1 [IPSAPIRONE]
IC50 [9]: 10 µM
IC50 [10]: 26 µM

CC(C)NCC(O)COc1cccc2[nH]ccc12 (single isomer, unassigned; (-)) [PINDOLOL]
Ki [5]: 0.02 µM

NCCc1c[nH]c2cccc(O)c12
Ki [4]: 1.05 µM
Ki [5]: 0.095 µM
Ki [1]: 0.725 µM

COc1cc(C[C@@H](C)N)c(OC)cc1Br (stereo in doubt; form 2)
Ki [2]: 4.2 µM

CN(C)CCc1c[nH]c2ccc(O)cc12 [BUFOTENINE]
Ki [4]: 0.91 µM
Ki [5]: 0.259 µM
Ki [1]: 0.38 µM

CNCCc1c[nH]c2ccc(O)cc12
Ki [4]: 0.045 µM
Ki [5]: 0.005 µM
Ki [1]: 0.18 µM

COc1cc([N+](=O)[O-])c(OC)cc1C[C@@H](C)N
Ki [1]: 0.21 µM
Ki [2]: 13.2 µM

c1ccc(N2CCNCC2)cc1 [PHENYLPIPERAZINE]
Ki [3]: 0.135 µM

Clc1cccc(N2CCNCC2)c1 [CHLOROPHENYLPIPERAZINE]
Ki [4]: 0.075 µM
Ki [5]: 2.4 µM

Cc1nc2ccccn2c(=O)c1CCN1CCC(C(=O)c2ccc(F)cc2)CC1 [PIRENPERONE]
Ki [11]: 0.0003 µM
Ki [4]: 6.6 µM
Ki [5]: 1.7 µM
Ki [7]: 0.001 µM
